Results taken from patent US7919260B2, “Screening methods using GPR52” (Takeda Pharmaceutical Company Limited, priority 2005, dated 2011).

What was measured:
Format in all cases: cell-based
[1] = system: NMDA-type glutamate receptor; assay: Activation of NMDA-type glutamate receptor in neurons from rat embryonic cerebral cortex (fura-2 intracellular calcium, AQUACOSMOS)
Method: Neurons from rat embryonic cerebral cortex (CAMBREX) were cultured in a 48-well poly-L-lysine (Sumitomo Bakelite) for 14-15 days by a modification of the method attached. A neuron culture medium (Dainippon Pharmaceutical) was used as a medium, unless otherwise indicated. Changes in intracellular calcium levels were assayed using AQUACOSMOS (Hamamatsu Photonics). For assaying the changes in intracellular calcium levels, the following pretreatment was made. First, in order to add fluorescence dye fura-2/AM (Molecular Probes) to cells, an assay buffer used to wash the cells immediately before the assay was prepared. To 1000 ml of HBSS (Invitrogen) supplemented with 20 ml of 1M HEPES (pH7.4) (DOJIN) (hereinafter HBSS/HEPES solution), 10 ml of a solution prepared by dissolving 710 mg of Probenecid (Sigma) in 5 ml of 1N NaOH and further adding 5 ml of the HBSS/HEPES solution thereto was added, and the resulting solution was used as the assay buffer. Next, an equal volume of 20% Pluronic acid (Molecular Device) was added to and mixed with the fura-2/AM stock solution. The mixture was dissolved in the assay buffer in a final concentration of 5 μM fura-2 to prepare the fura-2 fluorescence dye solution. The fura-2 fluorescence dye solution was loaded on neurons from the rat embryonic cerebral cortex, followed by incubation for 30-60 minutes. Thereafter, the changes in calcium levels in the individual neurons were determined using AQUACOSMOS (Hamamatsu Photonics).
Activation of the NMDA-type glutamate receptor in the cerebral cortex was analyzed by the procedures described in EXAMPLE 9.

GPR52 [2] = biological target: T1, GPR52 (Homo sapiens, UniProt Q9Y2T5); assay: Changes in intracellular calcium levels on FLIPR in CNGC-E583M/HEK293 cells transiently expressing human GPR52; set-up: expressed in transfected cells; host or cells: CNGC-E583M/HEK293 cells (HEK293 stably expressing rat olfactory cyclic nucleotide-gated channel E583M), transient transfection of pAKKO-GPR52; settings: human GPR52 transiently expressed in CNGC-E583M/HEK293; reserpine 1.0-100 μM (FIG. 1), methoctramine 15-75 μM (FIG. 2); no such response in control cells transfected with other receptor vector
Method: The stable expression cell line (CNGC-E583M/HEK293 cell line) of rat olfactory cyclic nucleotide-gated channel (CNGC-E583M), which was used as a host cell, was obtained by inserting rat olfactory cyclic nucleotide-gated channel (CNGC-E583M) cDNA into expression vector pcDNA3.1(+) neo (Invitrogen) (pcDNA3.1-CNGC), transfecting pcDNA3.1-CNGC into HEK293 cells (purchased from ATCC) in a conventional manner, and incubating the cells in DMEM (Dulbecco's modified Eagle medium) supplemented with 10% fetal calf serum (Invitrogen) and 800 mg/l geneticin (Invitrogen) under 5% CO2 at 37° C. [Fagan et al., FEBS, 500, 85 (2001); Reinescheid et al., European Journal of Pharmacology, 478, 27 (2003)]. The CNGC-E583M/HEK293 cells were incubated in a collagen-coated 75 cm^2 flask. […] First, an assay buffer was prepared to add fluorescence dye Fluo-3AM (DOJIN) to the cells or to wash the cells immediately before the FLIPR assay. […] The mixture was then added to 10.6 ml of the assay buffer supplemented with 105 μl of fetal calf serum, and 20 μl of 500 mM IBMX/DMSO was further added to prepare a fluorescence dye solution. The fluorescence dye solution was dispensed onto the cell plate by 100 μl each/well using an 8-channel pipette and the cells were incubated at 37° C. in a 5% CO2 incubator for an hour (dye loading). […]

[3] = system: NMDA-type glutamate receptor; assay: Phosphorylation (Ser897) of NMDA-type glutamate receptor in rat primary culture neurons (western blot, Anti-phospho-NR1); settings: 50 μM Compound A; cells recovered 1, 2, 5, 15 and 30 minutes after
Method: Using primary culture neurons from the rat […], phosphorylation of the NMDA-type glutamate receptor by GPR52 agonists was studied. Rat (Wistar, Charles River Japan) embryonic brain (E19) was dissected to isolate the cerebral cortex, and the cells were prepared using Neuron Dispersion Set (Dainippon Pharmaceutical). The cells were plated on a 24-well poly-L-lysine plate (3×10^5 cells/well) and incubated for 2 weeks in Neuro Basal (B27, containing 0.5 mM glutamine, GIBCO) medium. Compound A was added to the above cells at a final concentration of 50 μM, and the cells were recovered 1, 2, 5, 15 and 30 minutes after. After the cells were lysed in Invitrogen's NuPAGE Sample Buffer (containing DTT), western blot analysis was performed using antibody Anti-phospho-NR1 (Ser897) (Upstate).

GPR52 [4] = biological target: T1, GPR52; assay: Screening of GPR52 agonists: intracellular cAMP in GPR52 stable expression cells (AlphaScreen cAMP Assay Kit); set-up: expressed in transfected cells; settings: secondary screening at 100-0.1 μM
Method: The GPR52 stable expression cells prepared in REFERENCE EXAMPLE 1 were incubated in a 150 cm^2 at 37° C. overnight in a CO2 incubator. After the incubation, the cells were detached with 0.5 mM EDTA/PBS, and washed in PBS. The cells were then suspended at a density of 1×10^7 cells/ml in Buffer 1 (HBSS+0.1% BSA, 25 mM HEPES, pH 7.3, 0.5 mM IBMX). This cell suspension, 440 μl, was mixed with 22 μl of Anti-cAMP Acceptor Beads of AlphaScreen cAMP Assay Kit (Perkin Elmer) and 638 μl of Buffer 1. The resulting mixture was dispensed on a white 96-well plate (Costar) by 10 μl each. Next, 10 μl each of the test compound dilutions in Buffer 1 was added to each well. After shaking at room temperature for 30 minutes, 20 μl of Biotinyl cAMP and 82 μl of Streptavidin Donor Beads of AlphaScreen cAMP Assay Kit was added to 40 ml of Buffer 2 (HBSS+0.1% BSA, 25 mM HEPES, pH 7.3, 1.5% Tween 20) and the resulting mixture was added to all wells of the plate by 30 μl each. The plate was kept shaken at room temperature for 3 hours and the fluorescence intensities were measured by Fusion α (Perkin Elmer).
Secondary screening was applied to these compounds in various concentrations (100 μM, 30 μM, 10 μM, 3 μM, 1 μM and 0.1 μM) using the procedures described in EXAMPLE 11 (detailed analysis).

human GPR52-GFP = biological target: T2, human GPR52-GFP (Homo sapiens, UniProt Q9Y2T5, I167T); assay: Internalization of GPR52-GFP fusion protein expressed in CHO cells (confocal microscopy); settings: reserpine 10^-4 M, 30 minutes after addition
T2 construct: expressed in transfected cells; host or cells: CHO cells, vector pAKKO-111H
Description: An expression plasmid was constructed to express a fused protein of Green Fluorescent Protein (GFP) cDNA isolated from jellyfish or Auquorea victoria, fused to GPR52 at the C-terminus to fit the translation frame. In this case, a fragment excised from GFP expression vector pQBI25 (Takara Shuzo) was used as GFP cDNA. In GPR52, its termination codon was modified by PCR to recognition sequence with restriction enzyme NheI, and the GFP fragment was ligated thereto, which was inserted into the expression vector pAKKO-111H [Biochem. Biophys. Acta, 1219, 251 (1994)] and transfected to CHO cells in a conventional manner to obtain the human GPR52-GFP expression CHO cell line. The human GPR52-GFP expression CHO cells were suspended in a growth medium [αMEM (containing nucleic acids: Invitrogen) supplemented with 10% fetal calf serum (GIBCO BRL)] and plated on a Lab-TekII cover glass chamber with 4 chambers (Nalgen Nunc) in a concentration of 0.6×10^5 cells/chamber. […] In this case, GFP was excited at 488 nm.

GPR52 [5] = biological target: T1, GPR52; assay: Increase of intracellular cAMP levels in human GPR52 expression CHO cell line (cAMP Screen Kit); set-up: expressed in transfected cells; settings: reserpine in various concentrations, 30 minutes; negative controls Mock CHO and TGR5 CHO cell lines (FIG. 3)
Method: The human GPR52 expression CHO cells obtained in REFERENCE EXAMPLE 1 was washed in the assay medium (HBSS (Gibco BRL) supplemented with 0.2 mM isobutylmethylxanthine), followed by incubation for 30 minutes under conditions at 37° C. in 5% CO2. Then, reserpine diluted in the assay medium was added in various concentrations. The assay buffer alone was used as a Base. After the addition, incubation was conducted for 30 minutes under conditions at 37° C. in 5% CO2. The culture supernatant was discarded and the intracellular cAMP level was assayed on the plate reader (EnVision, Perkin-Elmer) in accordance with the protocol of cAMP Screen Kit (Applied Biosystems). As negative controls, the CHO cell line (Mock) wherein no exogenous receptor was expressed and the CHO cell line (TGR5) wherein Gs-conjugated receptor TGR5 was stably expressed were co-assayed.

internalization of GPR52-GFP fused protein (GFP fluorescence moved from cell membrane to cytoplasm) (human GPR52-GFP) | Structure (SMILES) | calcium level increase (ratio of Fura-2 fluorescence) on addition after glutamate ([1]; 10 μM glutamate, then 0.2 mM methoctramine during diminution of the calcium increase, n=11 neurons (FIG. 4)) | calcium level increase (ratio of Fura-2 fluorescence), compound alone without glutamate ([1]; 0.2 mM methoctramine alone, glutamate not added beforehand, n=27 neurons (FIG. 5)) | intracellular calcium ion levels (GPR52 [2]) | calcium level increase on addition after glutamate ([1]; 10 μM glutamate, then 10 μM Compound A during diminution of the calcium increase) | calcium level increase, compound alone without glutamate ([1]; 15 μM Compound A alone, glutamate not added) | phosphorylation (Ser897) of the NMDA-type glutamate receptor [3] | EC50 (GPR52 [4]) | intracellular cAMP levels (GPR52 [5])
– | COc1ccccc1CNCCCCCCNCCCCCCCCNCCCCCCNCc1ccccc1OC [methoctramine] | reactivated to induce the calcium level increase | any increase in calcium levels was not observed | increased dose-dependently | – | – | – | – | –
– | Cc1ncc2c(n1)N(CCCN1CCNCC1)CCC2Nc1cccc(Oc2cccc(Cl)c2)c1.Cl.Cl.Cl.Cl (stereo not shown) [Compound A, N-[3-(3-chlorophenoxy)phenyl]-2-methyl-8-[3-(1-piperazinyl)propyl]-5,6,7,8-tetrahydropyrido[2,3-d]pyrimidine-5-amine tetrahydrochloride] | – | – | – | reactivated to induce the calcium level increase | any increase in calcium levels was not observed | induced phosphorylation (Ser897) | 2.1 µM | –
internalization occurred | COC(=O)[C@H]1[C@H]2C[C@@H]3c4[nH]c5cc(OC)ccc5c4CCN3C[C@H]2C[C@@H](OC(=O)c2cc(OC)c(OC)c(OC)c2)[C@@H]1OC [reserpine] | – | – | increased dose-dependently | – | – | – | – | detected dose-dependently only in the human GPR52 expression CHO cell line
